Measured values taken from patent US20230233567A1, “BELVARAFENIB FOR USE IN CANCER TREATMENT” (Hanmi Pharm. Co., Ltd., priority 2020, published 2023).
Read-outs that look alike come from different tables or passages of the source.

Test: Phase I study plasma pharmacokinetics
Assay type: in vivo, human
Conditions: for AUC(0-inf) / AUC(0-t) / Cmax / AUC / Vd/F / Tmax: human, plasma, oral; for AUC: read-out: AUC24; for Vd/F: read-out: Vz/F; for Tmax: median, read-out: Tmax
Description: The PK parameters of belvarafenib were estimated in 48 patients in the dose-escalation phase and 35 patients in the dose-expansion phase. In the tables: “AUClast” refers to the area under the plasma concentration-time curve from zero time until the last measurable concentration; “AUC0-∞” refers to area under the plasma concentration-time curve from zero time to infinity; “AUC24” refers to the area under the curve from T0 to T24; “Cmax” refers to the maximal concentration; “Tmax” refers to the time to reach Cmax; “T1/2β” refers to the terminal elimination half-life; “QD” refers to once a day; and “BID” refers to twice a day. […] Mean and coefficient of variation are presented except for Tmax where median and range are presented. One patient in the 200 QD dosing regimen who took concomitant rifampin was removed from the analysis because the AUC and Cmax of the patient were much lower than those of the others in the same cohort, which, without being bound to any particular theory, could have resulted from the drug-metabolizing enzyme induction by rifampin through which belvarafenib is biotransformed.

[1] = Day 1 first dose, 50 mg/day QD, n=3, mean
[2] = Day 1 first dose, 100 mg/day QD, n=3, mean
[3] = Day 1 first dose, 200 mg/day QD, n=6, mean
[4] = Day 1 first dose, 200 mg/day QD, n=7, mean
[5] = Day 1 first dose, 400 mg/day BID, n=11, mean
[6] = Day 1 first dose, 600 mg/day BID, n=7, mean
[7] = Day 1 first dose, 600 mg/day QD, n=6, mean
[8] = Day 1 first dose, 900 mg/day BID, n=8, mean
[9] = Day 1 first dose, 1300 mg/day BID, n=6, mean
[10] = Day 1 first dose, 1600 mg/day BID, n=6, mean
[11] = Multiple administrations Day 17, 50 mg/day QD, n=2, mean
[12] = Multiple administrations Day 22, 100 mg/day QD, n=3, mean
[13] = Multiple administrations Day 22, 200 mg/day QD, n=5, mean
[14] = Multiple administrations Day 22, 200 mg/day QD, n=6, mean
[15] = Multiple administrations Day 22, 400 mg/day BID, n=8, mean
[16] = 50 mg/day, Multiple administrations Day 17, 50 mg/day QD, n=2, mean
[17] = 100 mg/day, Multiple administrations Day 22, 100 mg/day QD, n=3, mean
[18] = 200 mg/day, Multiple administrations Day 22, 200 mg/day QD, n=5, mean
[19] = 200 mg/day, Multiple administrations Day 22, 200 mg/day QD, n=6, mean
[20] = 400 mg/day, Multiple administrations Day 22, 400 mg/day BID, n=8, mean
[21] = 600 mg/day, Multiple administrations Day 22, 600 mg/day BID, n=6, mean

`Cc1ccc2c(Nc3cccc(Cl)c3F)nccc2c1NC(=O)c1csc2c(N)ncnc12` [Belvarafenib] showed a CL/F [1] of 2.5 L/h, a T1/2β [1] of 51.6 h and a CL/F [2] of 2.5 L/h. It also gave a T1/2β [2] of 55.3 h, a CL/F [3] of 7.3 L/h and a T1/2β [3] of 57.7 h. It also gave a CL/F [4] of 15.4 L/h, a T1/2β [4] of 50.5 h and a CL/F [5] of 7.8 L/h. For the same compound, the T1/2β [5] was 70.7 h, the CL/F [6] was 7.7 L/h and the T1/2β [6] was 86.6 h. The CL/F [7] was 9.9 L/h, the T1/2β [7] was 58.9 h and the CL/F [8] was 5.7 L/h. The T1/2β [8] was 84.3 h, the CL/F [9] was 9.0 L/h and the T1/2β [9] was 77.4 h. The CL/F [10] was 14.5 L/h, the T1/2β [10] was 215.8 h and the CL/F [11] was 0.6 L/h. For the same compound, the T1/2β [11] was 70.7 h, the CL/F [12] was 0.9 L/h and the T1/2β [12] was 106.1 h. The CL/F [13] was 1.3 L/h, the T1/2β [13] was 69.8 h and the CL/F [14] was 2.4 L/h. The T1/2β [14] was 65.1 h, the CL/F [15] was 3.3 L/h and the T1/2β [15] was 41.2 h. The T1/2β (Multiple administrations Day 22, 600 mg/day BID, n=6, mean) was 52.3 h, the CL/F (Multiple administrations Day 22, 600 mg/day BID, n=6, mean (CV)) was 2.2 (63.3) L/h and the T1/2β (Multiple administrations Day 22, 600 mg/day QD, n=6, mean) was 97.7 h. For the same compound, the CL/F (Multiple administrations Day 22, 600 mg/day QD, n=6, mean (CV)) was 3.4 (81.8) L/h, the T1/2β (Multiple administrations Day 22, 900 mg/day BID, n=7, mean) was 32.3 h and the CL/F (Multiple administrations Day 22, 900 mg/day BID, n=7, mean (CV)) was 3.8 (50.7) L/h. For the same compound, the T1/2β (Multiple administrations Day 22, 1300 mg/day BID, n=6, mean) was 66.4 h, the CL/F (Multiple administrations Day 22, 1300 mg/day BID, n=6, mean (CV)) was 2.7 (54.7) L/h and the T1/2β (Multiple administrations Day 22, 1600 mg/day BID, n=4, mean) was 42.7 h. For the same compound, the CL/F (Multiple administrations Day 22, 1600 mg/day BID, n=4, mean (CV)) was 14.8 (61.2) L/h, the “mean plasma concentration versus dose” value (from 50 mg QD to 650 mg BID) was “linearity in a dose-proportional manner” and the AUC(0-inf) [16] was 88800 ng·h/mL. The AUC(0-t) [16] was 18900 ng·h/mL, the Cmax [16] was 1120 ng/mL and the AUC [16] was 18900 ng·h/mL. For the same compound, the Vd/F [16] was 57.6 L, the Tmax (50 mg/day, Multiple administrations Day 17, 50 mg/day QD, n=2) was 3 h and the AUC(0-inf) [17] was 349000 ng·h/mL. It also gave an AUC(0-t) [17] of 41900 ng·h/mL, a Cmax [17] of 1990 ng/mL and an AUC [17] of 42000 ng·h/mL. For the same compound, the Vd/F [17] was 62.7 L, the Tmax (100 mg/day, Multiple administrations Day 22, 100 mg/day QD, n=3) was 5 h and the AUC(0-inf) [18] was 239000 ng·h/mL. It also gave an AUC(0-t) [18] of 48200 ng·h/mL, a Cmax [18] of 2520 ng/mL and an AUC [18] of 48200 ng·h/mL. The Vd/F [18] was 116 L, the Tmax (200 mg/day, Multiple administrations Day 22, 200 mg/day QD, n=5) was 3.2 h and the AUC(0-inf) [19] was 203000 ng·h/mL. The AUC(0-t) [19] was 41600 ng·h/mL, the Cmax [19] was 2210 ng/mL and the AUC [19] was 41700 ng·h/mL. The Vd/F [19] was 178 L, the Tmax (200 mg/day, Multiple administrations Day 22, 200 mg/day QD, n=6) was 3.1 h and the AUC(0-inf) [20] was 207000 ng·h/mL. For the same compound, the AUC(0-t) [20] was 67500 ng·h/mL, the Cmax [20] was 3210 ng/mL and the AUC [20] was 68900 ng·h/mL. It also gave a Vd/F [20] of 157 L, a Tmax (400 mg/day, Multiple administrations Day 22, 400 mg/day BID, n=8) of 13.1 h and an AUC(0-inf) [21] of 507000 ng·h/mL. The AUC(0-t) [21] was 116000 ng·h/mL, the Cmax [21] was 5700 ng/mL and the AUC [21] was 120000 ng·h/mL. For the same compound, the Vd/F [21] was 122 L and the Tmax (600 mg/day, Multiple administrations Day 22, 600 mg/day BID, n=6) was 3.4 h.
